Assay results from US7354915B2 (Wyeth, priority 2003, dated 2008).
“And” between values parts separate entries of the source, which are not always exact repeats. Identical values can stand only once.

Tests used:
[1] = system: rat uterine decidualization; test: Rat decidualization assay; assay type: in vivo; conditions: ovariectomized female Sprague-Dawley rats; for Estimated average EC50 (decidual response) / EC50 for uterine weight (decidual response): s.c.; for Estimated average EC50 (decidual response): average of dose-response curves; for EC50 for uterine weight (decidual response): once daily for seven days, individual studies (Exp)
Procedure: B. Rat decidualization assay • 1. […] Methods: • a. […] The animals were treated once daily for seven days. […] Dosing • Doses were prepared based upon mg/kg mean group body weight. In all studies, a control group receiving vehicle was included. […] The contralateral horn was not scratched and served as an unstimulated control. Approximately 24 hours following the final treatment, rats were sacrificed by CO2 asphyxiation and body weight measured. Uteri were removed and trimmed of fat. Decidualized (D-horn) and control (C-horn) uterine horns were weighed separately. • 3.
Body weight: Mean total animal body weight (default-kg)
Decidual response: [(D−C)/C]×100%

T47D cells = test: T47D cell proliferation assay (BrdU incorporation); assay type: cell-based
Procedure: A. T47D cell proliferation assay • 1. Objective: • Determination of progestational and antiprogestational potency was performed by using a cell proliferation assay in T47D cells. A compound's effect on DAN synthesis in T47D cells was measured. • 2. Methods: • a. Reagents: • Growth medium: DMEM:F12 (1:1) (GIBCO, BRL) supplemented with 10% (v/v) fetal bovine serum (not heat-inactivated), 100 U/mL penicillin, […] streptomycin, and 2 mM GlutaMax (GIBCO, BRL). • Treatment medium: Minimum Essential Medium (MEM) (#51200-038GIBCO, BRL) phenol red-free supplemented with 0.5% charcoal stripped fetal bovine serum, 100 U/mL penicillin, […] streptomycin, and 2 mM GlutaMax (GIBCO, BRL). • b. Cell Culture: • Stock T47 D cells were maintained in growth medium. For BrdU incorporation assay, cells were plated in 96-well plates (Falcon, Becton Dickinson Labware) at 10,000 cells/well in growth medium. […] Cell Proliferation Assay: • At the end of BrdU labeling, the medium was removed and BrdU incorporation was measured using a cell proliferation ELISA kit (#RPN 250, Amersham Life Science) according to manufacturer's instructions. […] Then 25 μL of 1 M sulfuric acid was added to each well to stop color reaction and optical density read in a plate reader at 450 nm within 5 minutes. • 3. […] EC50 or IC50 values were calculated from the retransformed values. […]

SMILES	Estimated average EC50 (decidual response) [1]	EC50 for uterine weight (decidual response) [1]	further results
C#C[C@]1(O)CC[C@H]2[C@@H]3CCC4=CC(=O)CC[C@@H]4[C@H]3C(=C)C[C@@]21CC [3-Ketodesogestrel]	0.10 mg/kg, s.c.	0.10 mg/kg, s.c. and 0.06 mg/kg, s.c. and 0.11 mg/kg, s.c.	–
C#C[C@]1(O)CC[C@H]2[C@@H]3CCC4=CC(=O)CC[C@@H]4[C@H]3CC[C@@]21CC [Levonorgestrel]	0.10 mg/kg, s.c.	0.08 mg/kg, s.c. and 0.12 mg/kg, s.c. and 0.09 mg/kg, s.c. (2×)	–
CC(=O)O[C@]1(C(C)=O)CC[C@H]2[C@@H]3C[C@H](C)C4=CC(=O)CC[C@]4(C)[C@H]3CC[C@@]21C [MPA, medroxyprogesterone acetate]	–	0.42 mg/kg, s.c. and 0.39 mg/kg, s.c. (2×)	–
CC(=O)[C@H]1CC[C@H]2[C@@H]3CCC4=CC(=O)CC[C@]4(C)[C@H]3CC[C@]12C [Progesterone]	–	5.50 mg/kg, s.c.	–
CC#C[C@]1(O)CC[C@H]2[C@@H]3CCC4=CC(=O)CCC4=C3[C@@H](c3ccc(N(C)C)cc3)C[C@@]21C [RU486]	–	–	IC50 for uterine weight (decrease in EC50 progesterone induced decidual response) ([1]; p.o., with progesterone 5.6 mg/kg, individual studies (Exp.)): 0.21 mg/kg, p.o. and 0.14 mg/kg, p.o.; IC50 (T47D cells; read-out: IC50 (half-maximal decrease in trimegestone induced BrdU incorporation), antagonist mode in the presence of 0.03 nM trimegestone, individual studies (Exp)): 0.016 nM and 0.018 nM
C[C@H](O)C(=O)[C@@]1(C)CC[C@H]2[C@@H]3CCC4=CC(=O)CCC4=C3CC[C@@]21C [Trimegestone]	–	–	EC50 (T47D cells; agonist mode, individual studies (Exp), read-out: EC50 (half-maximal increase in BrdU incorporation)): 0.017 nM and 0.014 nM and 0.019 nM
